In US9403823B2, “Protein kinase inhibitors” (ORIBASE PHARMA, priority 2012, dated 2016):
Where two headings read alike, the source gives them in different places. Marks after values point to notes of the source that are not given here.

Legend:
[1] = target: T1, EGFR (ErbB1) (Homo sapiens, UniProt P00533); assay: In vitro kinase assay (Z'-LYTE), EGFR (ErbB1); assay type: biochemical; conditions: read-out: % of inhibition of the kinase compared to the control
T1 construct: purchased Invitrogen
Procedure, shortened: (§1)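 Compounds at a single dose (100 nM; 10 μM for both ABL forms) were run in a fluorescence coupled-enzyme kinase format relying on differential protease sensitivity of phospho versus non-phospho peptide. Reaction progress was measured ratiometrically from the FRET pair.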

[2] = tested on: A549 cell line; assay: In vitro cell proliferation assay (MTT), A549; assay type: cell-based; conditions: Homo sapiens, read-out: EC50, anti-proliferative activity
Procedure, shortened: (§2)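 Duplicate wells of each line were exposed for 72 hr to 10 nM–3 μM compound. HRMEC were plated at 1×10^4 cells per well, cancer cells at 5×10^3.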

[3] = target: T2, KDR (VEGFR2) (Homo sapiens, UniProt P35968); assay: In vitro kinase assay (Z'-LYTE), KDR (VEGFR2); assay type: biochemical; conditions: read-out: % of inhibition of the kinase compared to the control
T2 construct: purchased Invitrogen
Procedure, shortened: as §1

[4] = target: T3, PDGFRB (Homo sapiens, UniProt P09619); assay: In vitro kinase assay (Z'-LYTE), PDGFRB; assay type: biochemical; conditions: read-out: % of inhibition of the kinase compared to the control
T3 construct: purchased Invitrogen
Description: (§3) 1) In Vitro Kinase Assays (Table 10 to Table 21)
(§4) The inhibitory activity of the compounds on several kinases including BRAF, EGFR (ErbB1), EGFR (ErbB1) T790M L858R, FGFR2, KDR (VEGFR2), PDGFRA (PDGFR alpha), SRC and other was evaluated by Invitrogen using the Z′-LYTE® technology. Briefly, the Z′-LYTE® biochemical assay employs a fluorescence-based, coupled-enzyme format and is based on the differential sensitivity of phosphorylated and non-phosphorylated peptides to proteolytic cleavage. The peptide substrate is labeled with two fluorophores—one at each end—that make up a FRET pair. A ratiometric method, which calculates the ratio (the Emission Ratio) of donor emission to acceptor emission after excitation of the donor fluorophore at 400 nm, is used to quantitate reaction progress.
(§5) The compounds are screened in 1% DMSO (final) in the well. For 10 point titrations, 3-fold serial dilutions are conducted from the starting concentration. All Peptide/Kinase Mixtures are diluted to a 2× working concentration in the appropriate Kinase Buffer. All ATP Solutions are diluted to a 4× working concentration in Kinase Buffer (50 mM HEPES pH 7.5, 0.01% BRIJ-35, 10 mM MgCl2, 1 mM EGTA). ATP Km apparent is previously determined using a Z′-LYTE® assay. […]

[5] = target: T4, ABL T315I (Homo sapiens, UniProt P00519, T315I); assay: In vitro kinase assay (Z'-LYTE), ABL T315I; assay type: biochemical; conditions: read-out: % of inhibition of the kinase compared to the control
T4 construct: purchased Invitrogen
Description: as §3, §4
(§6) The compounds are screened in 1% DMSO (final) in the well. For 10 point titrations, 3-fold serial dilutions are conducted from the starting concentration. All Peptide/Kinase Mixtures are diluted to a 2× working concentration in the appropriate Kinase Buffer. All ATP Solutions are diluted to a 4× working concentration in Kinase Buffer (50 mM HEPES pH 7.5, 0.01% BRIJ-35, 10 mM MgCl2, 1 mM EGTA). ATP Km apparent is previously determined using a Z′-LYTE® assay.
(§7) Each compound was incubated at a concentration of 100 nM (excepted to test the activity against ABL and ABL T315I for which the compounds were incubated at a concentration of 10 μM) and the tables 10 to 21 summarize the results obtained showing the inhibitory power of a compound.

[6] = target: T5, BRAF (Homo sapiens, UniProt P15056); assay: In vitro kinase assay (Z'-LYTE), BRAF; assay type: biochemical; conditions: read-out: % of inhibition of the kinase compared to the control
T5 construct: purchased Invitrogen
T5 sequence (P15056 whole entry): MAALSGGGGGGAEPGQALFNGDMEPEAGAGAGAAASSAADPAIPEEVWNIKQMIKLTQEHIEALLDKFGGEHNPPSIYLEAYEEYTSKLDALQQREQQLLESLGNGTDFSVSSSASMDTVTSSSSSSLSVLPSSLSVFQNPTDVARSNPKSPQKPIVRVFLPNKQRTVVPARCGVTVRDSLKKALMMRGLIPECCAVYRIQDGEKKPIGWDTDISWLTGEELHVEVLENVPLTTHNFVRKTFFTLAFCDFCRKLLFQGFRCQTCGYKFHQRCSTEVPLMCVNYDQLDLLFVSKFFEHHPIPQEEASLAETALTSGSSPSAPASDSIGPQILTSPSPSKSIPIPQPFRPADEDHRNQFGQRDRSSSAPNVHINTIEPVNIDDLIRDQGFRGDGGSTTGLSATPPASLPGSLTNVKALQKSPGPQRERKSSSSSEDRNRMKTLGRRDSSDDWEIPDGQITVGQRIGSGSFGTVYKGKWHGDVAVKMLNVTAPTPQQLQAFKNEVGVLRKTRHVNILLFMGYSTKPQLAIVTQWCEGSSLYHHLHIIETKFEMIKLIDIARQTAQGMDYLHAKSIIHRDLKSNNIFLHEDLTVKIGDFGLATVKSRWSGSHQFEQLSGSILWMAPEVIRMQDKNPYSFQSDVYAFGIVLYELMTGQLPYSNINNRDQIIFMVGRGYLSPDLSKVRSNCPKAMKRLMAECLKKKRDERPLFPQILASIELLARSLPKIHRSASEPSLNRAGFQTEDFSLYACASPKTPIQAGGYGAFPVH
Procedure, shortened: as §1

[7] = target: T6, FGFR2 (Homo sapiens, UniProt P21802); assay: In vitro kinase assay (Z'-LYTE), FGFR2; assay type: biochemical; conditions: read-out: % of inhibition of the kinase compared to the control
T6 construct: purchased Invitrogen
T6 sequence (P21802 22-821): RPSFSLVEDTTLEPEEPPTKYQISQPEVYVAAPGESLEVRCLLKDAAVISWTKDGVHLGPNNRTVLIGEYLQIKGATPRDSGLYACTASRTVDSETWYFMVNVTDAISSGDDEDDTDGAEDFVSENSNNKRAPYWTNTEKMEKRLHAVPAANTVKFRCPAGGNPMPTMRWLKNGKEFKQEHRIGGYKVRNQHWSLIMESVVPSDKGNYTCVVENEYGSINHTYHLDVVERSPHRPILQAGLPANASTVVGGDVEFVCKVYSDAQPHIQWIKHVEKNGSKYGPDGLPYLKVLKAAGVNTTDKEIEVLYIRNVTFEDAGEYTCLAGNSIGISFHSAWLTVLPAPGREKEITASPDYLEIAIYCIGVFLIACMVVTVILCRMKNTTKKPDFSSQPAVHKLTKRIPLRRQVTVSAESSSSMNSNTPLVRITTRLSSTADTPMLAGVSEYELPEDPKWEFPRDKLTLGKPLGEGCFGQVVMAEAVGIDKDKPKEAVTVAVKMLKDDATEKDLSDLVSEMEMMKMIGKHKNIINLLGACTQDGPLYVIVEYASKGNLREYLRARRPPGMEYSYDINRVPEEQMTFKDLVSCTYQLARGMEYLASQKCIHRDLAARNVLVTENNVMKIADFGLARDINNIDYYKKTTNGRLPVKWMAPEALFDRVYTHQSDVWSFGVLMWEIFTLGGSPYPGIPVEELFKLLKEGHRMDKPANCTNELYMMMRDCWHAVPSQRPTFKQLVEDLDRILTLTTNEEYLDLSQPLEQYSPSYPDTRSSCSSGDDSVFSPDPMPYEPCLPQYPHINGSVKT
Procedure, shortened: as §1

[8] = target: T7, PDGFRA (PDGFR alpha) (Homo sapiens, UniProt P16234); assay: In vitro kinase assay (Z'-LYTE), PDGFRA; assay type: biochemical; conditions: read-out: % of inhibition of the kinase compared to the control
T7 construct: purchased Invitrogen
T7 sequence (P16234 24-1089): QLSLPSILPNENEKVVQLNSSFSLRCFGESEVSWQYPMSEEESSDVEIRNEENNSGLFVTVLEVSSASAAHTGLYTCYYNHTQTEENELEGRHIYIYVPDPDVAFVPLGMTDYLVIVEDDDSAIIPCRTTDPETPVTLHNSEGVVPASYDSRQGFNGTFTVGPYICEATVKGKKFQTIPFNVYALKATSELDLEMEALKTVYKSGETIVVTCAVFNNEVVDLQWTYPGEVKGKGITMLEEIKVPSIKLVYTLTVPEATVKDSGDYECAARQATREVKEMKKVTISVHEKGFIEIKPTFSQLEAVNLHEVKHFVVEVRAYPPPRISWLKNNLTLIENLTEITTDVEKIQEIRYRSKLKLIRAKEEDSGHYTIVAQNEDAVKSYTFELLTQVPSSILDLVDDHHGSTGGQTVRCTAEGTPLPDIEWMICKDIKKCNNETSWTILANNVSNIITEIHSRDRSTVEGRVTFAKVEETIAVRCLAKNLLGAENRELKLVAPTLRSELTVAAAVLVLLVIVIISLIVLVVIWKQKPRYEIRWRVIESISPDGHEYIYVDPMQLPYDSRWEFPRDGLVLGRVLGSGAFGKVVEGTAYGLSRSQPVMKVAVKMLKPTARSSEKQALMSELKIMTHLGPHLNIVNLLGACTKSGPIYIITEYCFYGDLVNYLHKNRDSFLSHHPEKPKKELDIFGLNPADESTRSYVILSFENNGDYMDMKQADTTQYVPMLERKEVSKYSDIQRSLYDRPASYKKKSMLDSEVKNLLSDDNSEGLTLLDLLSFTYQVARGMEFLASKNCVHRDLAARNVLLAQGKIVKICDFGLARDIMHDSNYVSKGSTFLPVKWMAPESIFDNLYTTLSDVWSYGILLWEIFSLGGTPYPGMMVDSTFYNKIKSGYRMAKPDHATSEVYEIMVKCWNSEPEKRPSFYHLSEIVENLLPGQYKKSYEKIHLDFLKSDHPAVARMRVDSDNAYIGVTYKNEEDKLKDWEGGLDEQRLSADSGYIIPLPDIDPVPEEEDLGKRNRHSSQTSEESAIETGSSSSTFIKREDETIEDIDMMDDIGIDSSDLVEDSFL
Procedure, shortened: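 FRET-based Z'-LYTE coupled-enzyme assay: kinase phosphorylates a dual-fluorophore peptide, unphosphorylated peptide is protease-cleaved, and donor/acceptor emission ratio after 400 nm excitation quantifies progress. Buffer 50 mM HEPES pH 7.5, 10 mM MgCl2, 1 mM EGTA, 0.01% BRIJ-35; 1% DMSO final. Single compound concentration: 100 nM, or 10 μM for ABL and ABL T315I.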

[9] = tested on: BxPC-3 cell line; assay: In vitro cell proliferation assay (MTT), BxPC-3; assay type: cell-based; conditions: Homo sapiens, read-out: EC50, anti-proliferative activity
Description: (§8) 2) In Vitro Cell Proliferation Assays (Table 22 to Table 35)
(§9) Cancer cell lines (5×10^3 cells per well) or HUVEC (1×10^4 cells per well) or HRMEC (1×10^4 cells per well) were distributed in 96-well plates and incubating in duplicate with escalating concentrations (10 nM to 3 μM) of compounds for 72 hr. Cell proliferation was measured using MTT (3[4,5-dimethylthiazol-2-yl]-2,5-diphenyltetrazolium bromide).

[10] = target: T8, VEGFR1 (Homo sapiens, UniProt P17948); assay: In vitro kinase assay (Z'-LYTE), VEGFR1; assay type: biochemical; conditions: read-out: % of inhibition of the kinase compared to the control
T8 construct: purchased Invitrogen
Description: as §3, §4, §5

[11] = target: T9, ABL (Homo sapiens, UniProt P00519); assay: In vitro kinase assay (Z'-LYTE), ABL; assay type: biochemical; conditions: read-out: % of inhibition of the kinase compared to the control
T9 construct: purchased Invitrogen
Description: as §3, §4, §6, §7

[12] = target: T10, SRC (Homo sapiens, UniProt P12931); assay: In vitro kinase assay (Z'-LYTE), SRC; assay type: biochemical; conditions: read-out: % of inhibition of the kinase compared to the control
T10 construct: purchased Invitrogen
T10 sequence (P12931 whole entry): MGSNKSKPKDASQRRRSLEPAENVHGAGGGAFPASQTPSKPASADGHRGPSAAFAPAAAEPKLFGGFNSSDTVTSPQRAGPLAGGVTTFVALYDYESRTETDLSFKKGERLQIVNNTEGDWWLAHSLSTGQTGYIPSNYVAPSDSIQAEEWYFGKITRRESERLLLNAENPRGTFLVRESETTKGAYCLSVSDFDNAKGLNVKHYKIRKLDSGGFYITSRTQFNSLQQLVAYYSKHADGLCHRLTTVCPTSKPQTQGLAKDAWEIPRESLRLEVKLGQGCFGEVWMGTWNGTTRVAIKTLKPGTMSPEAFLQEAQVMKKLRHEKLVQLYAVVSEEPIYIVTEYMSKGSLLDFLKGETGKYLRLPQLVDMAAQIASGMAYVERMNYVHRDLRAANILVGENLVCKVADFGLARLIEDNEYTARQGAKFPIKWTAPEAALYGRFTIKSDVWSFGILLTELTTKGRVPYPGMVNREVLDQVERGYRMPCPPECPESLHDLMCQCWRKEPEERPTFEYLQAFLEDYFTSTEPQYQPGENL
Procedure, shortened: as §1

[13] = target: T11, EGFR (ErbB1) T790M L858R (Homo sapiens, UniProt P00533, L858R/T790M); assay: In vitro kinase assay (Z'-LYTE), EGFR (ErbB1) T790M L858R; assay type: biochemical; conditions: read-out: % of inhibition of the kinase compared to the control
T11 construct: purchased Invitrogen
Procedure, shortened: as §1

[14] = target: T12, FGFR1 (Homo sapiens, UniProt P11362); assay: In vitro kinase assay (Z'-LYTE), FGFR1; assay type: biochemical; conditions: read-out: % of inhibition of the kinase compared to the control
T12 construct: purchased Invitrogen
Description: as §3, §4, §5

[15] = tested on: HUVEC; assay: In vitro cell proliferation assay (MTT), HUVEC; assay type: cell-based; conditions: Homo sapiens, read-out: EC50, anti-proliferative activity
Procedure, shortened: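 Anti-proliferative effects on human umbilical vein endothelial cells were assessed by an MTT (3[4,5-dimethylthiazol-2-yl]-2,5-diphenyltetrazolium bromide) readout. Cells (1×10^4 cells per well) in 96-well plates were incubated in duplicate for 72 hr with escalating test compound concentrations spanning 10 nM to 3 μM.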

[16] = tested on: H1975 cell line; assay: In vitro cell proliferation assay (MTT), H1975; assay type: cell-based; conditions: Homo sapiens, read-out: EC50, anti-proliferative activity
Procedure, shortened: as §2

[17] = tested on: HepG2 cell line; assay: In vitro cell proliferation assay (MTT), HepG2; assay type: cell-based; conditions: Homo sapiens, read-out: EC50, anti-proliferative activity
Procedure, shortened: as §2

[18] = tested on: HT29 cell line; assay: In vitro cell proliferation assay (MTT), HT29; assay type: cell-based; conditions: Homo sapiens, read-out: EC50, anti-proliferative activity
Procedure, shortened: as §2

[19] = tested on: MDA-MB-231 cell line; assay: In vitro cell proliferation assay (MTT), MDA-MB-231; assay type: cell-based; conditions: Homo sapiens, MDA-MB-231, 72 h; read-out: EC50, anti-proliferative activity
Procedure, shortened: as §2

[20] = tested on: HeLa cell line; assay: In vitro cell proliferation assay (MTT), HeLa; assay type: cell-based; conditions: Homo sapiens, 72 h, read-out: EC50, anti-proliferative activity
Procedure, shortened: as §2

[21] = tested on: HepG2 cells; assay: Human hepatocellular carcinoma mouse model (HepG2 xenograft); assay type: in vivo, athymic nude male mice; conditions: 20 mg/kg q.d. per os for 15 consecutive days
Description: 3) In Vivo Studies (Table 36)
Human hepatocellular carcinoma mouse model was prepared by subcutaneously implanting HepG2 cells (1×10^7 cell/mL in sterile PBS), into the right flank of athymic nude male mice (HSD, 6-7 weeks old). When the tumor volume reached approximately 200 mm^3, mice were assigned randomly to either vehicle alone or ORB compounds treatment groups (six mice per group). Mice were treated with either vehicle (PEG400) or OR0720, OR0721, OR0811 (20 mg/kg q.d.; per os for 15 consecutive days).
Tumor volumes in mm^3 were determined three times a week with a digital caliper and calculated using the following formula: Tumor Volume (mm)=length (mm)×width (mm)×width (mm)×½. Body weight was measured three times a week, and mice were observed daily for monitoring signs of stress to detect possible toxicities. One-way ANOVA was used for statistical comparisons. Data were analyzed with Prism 5.0 b (GraphPad Software) by one-way ANOVA with Bonferroni post hoc. Tumor Growth Inhibition (TGI) is calculated as the percent decrease of tumor growth at the end of the study in the ORB compounds treatment groups in comparison to the vehicle alone treatment group.

[22] = tested on: HuH6 Clone 5 cell line; assay: In vitro cell proliferation assay (MTT), HuH6 Clone 5; assay type: cell-based; conditions: HUH-6-clone5, 72 h; read-out: EC50, anti-proliferative activity
Description: as §8, §9

[23] = tested on: Caki-2; assay: In vitro cell proliferation assay (MTT), Caki-2; assay type: cell-based; conditions: Homo sapiens, CAKI-2, 72 h; read-out: EC50, anti-proliferative activity
Description: as §8, §9

[24] = tested on: HuCCT1 cell line; assay: In vitro cell proliferation assay (MTT), HuCCT1; assay type: cell-based; conditions: Homo sapiens, HuCCT-1, 72 h; read-out: EC50, anti-proliferative activity
Procedure, shortened: as §2

[25] = tested on: HuH7 cell line; assay: In vitro cell proliferation assay (MTT), HuH7; assay type: cell-based; conditions: Homo sapiens, Huh-7, 72 h; read-out: EC50, anti-proliferative activity
Procedure, shortened: as §2

[26] = tested on: PC3 cell line; assay: In vitro cell proliferation assay (MTT), PC3; assay type: cell-based; conditions: Homo sapiens, PC-3, 72 h; read-out: EC50, anti-proliferative activity
Description: as §8, §9

[27] = tested on: HRMEC cells; assay: In vitro cell proliferation assay (MTT), HRMEC; assay type: cell-based; conditions: 72 h, read-out: EC50, anti-proliferative activity
Description: as §8, §9

T1 sequence (P00533 25-1210): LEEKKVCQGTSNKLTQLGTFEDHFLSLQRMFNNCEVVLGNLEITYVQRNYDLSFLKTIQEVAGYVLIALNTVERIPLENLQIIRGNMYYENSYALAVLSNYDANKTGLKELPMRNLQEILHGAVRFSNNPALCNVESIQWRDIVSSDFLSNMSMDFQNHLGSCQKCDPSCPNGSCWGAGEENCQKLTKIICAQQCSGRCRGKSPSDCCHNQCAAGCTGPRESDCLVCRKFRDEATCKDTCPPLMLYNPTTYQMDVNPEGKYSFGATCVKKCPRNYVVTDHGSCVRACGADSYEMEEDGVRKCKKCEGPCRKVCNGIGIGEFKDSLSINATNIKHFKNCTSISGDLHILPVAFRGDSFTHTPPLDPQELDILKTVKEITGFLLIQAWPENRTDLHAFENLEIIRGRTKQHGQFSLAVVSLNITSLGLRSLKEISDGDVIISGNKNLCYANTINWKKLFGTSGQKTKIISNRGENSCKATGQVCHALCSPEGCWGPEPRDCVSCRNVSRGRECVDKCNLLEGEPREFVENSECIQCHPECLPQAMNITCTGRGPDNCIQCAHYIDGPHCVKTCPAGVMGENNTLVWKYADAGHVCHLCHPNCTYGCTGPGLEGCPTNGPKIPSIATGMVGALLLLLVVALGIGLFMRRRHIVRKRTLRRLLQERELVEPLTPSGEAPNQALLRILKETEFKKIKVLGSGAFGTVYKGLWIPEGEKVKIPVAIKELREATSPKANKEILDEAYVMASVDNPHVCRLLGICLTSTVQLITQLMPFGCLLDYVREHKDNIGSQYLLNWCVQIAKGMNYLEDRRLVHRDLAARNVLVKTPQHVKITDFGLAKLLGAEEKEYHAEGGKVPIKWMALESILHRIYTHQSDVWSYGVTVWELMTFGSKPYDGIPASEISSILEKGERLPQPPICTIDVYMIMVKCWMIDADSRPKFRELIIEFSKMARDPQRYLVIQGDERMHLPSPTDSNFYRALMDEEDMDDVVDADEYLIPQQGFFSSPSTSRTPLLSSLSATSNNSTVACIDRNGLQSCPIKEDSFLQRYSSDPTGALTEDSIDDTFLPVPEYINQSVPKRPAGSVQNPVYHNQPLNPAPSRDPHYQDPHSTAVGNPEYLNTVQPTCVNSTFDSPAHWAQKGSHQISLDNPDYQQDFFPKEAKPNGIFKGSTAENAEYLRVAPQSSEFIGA

inhibition at 0.1 µM [1] [%]	EC50 ([2]; A549, 72 hr, MTT) [nM]	inhibition at 0.1 µM [3] [%]	inhibition at 0.1 µM [4] [%]	inhibition at 10 µM [5] [%]	inhibition at 0.1 µM [6] [%]	inhibition at 0.1 µM [7] [%]	inhibition at 0.1 µM [8] [%]	EC50 ([9]; BxPC-3, 72 hr, MTT) [nM]	inhibition at 0.1 µM [10] [%]	inhibition at 10 µM [11] [%]	inhibition at 0.1 µM [12] [%]	inhibition at 0.1 µM [13] [%]	inhibition at 0.1 µM [14] [%]	Compound	also measured
≥ 50	≥ 1000	≥ 50	< 50	< 50	< 50	< 50	≥ 50	≥ 1000	≥ 50	≥ 50	≥ 50	≥ 50	< 50	Cc1cn(-c2cc(C(=O)Nc3ccc(C)c(CNc4cnc5[nH]c(C(=O)O)cc5c4)c3)cc(C(F)(F)F)c2)cn1 [OR0653, 5-{2-Methyl-5-[3-(4-methyl-imidazol-1-yl)-5-trifluoromethyl-benzoylamino]-benzylamino}-1H-pyrrolo[2,3-b]pyridine-2-carboxylic acid]	–
≥ 50	≥ 1000	≥ 50	≥ 50	≥ 50	< 50	≥ 50	≥ 50	≥ 1000	≥ 50	≥ 50	≥ 50	≥ 50	≥ 50	Cc1ccc(NC(=O)c2ccc(CN3CCN(C)CC3)c(C(F)(F)F)c2)cc1CNc1cnc2[nH]c(C(=O)O)cc2c1 [OR0623, 5-{2-Methyl-5-[4-(4-methyl-piperazin-1-ylmethyl)-3-trifluoromethyl-benzoylamino]-benzylamino}-1H-pyrrolo[2,3-b]pyridine-2-carboxylic acid]	EC50 ([15]; 72 hr, MTT): ≥ 1000 nM; EC50 ([16]; NCI-H1975, H1975, 72 hr, MTT): ≥ 1000 nM; EC50 ([17]; HepG2, 72 hr, MTT): ≥ 1000 nM; EC50 ([18]; HT-29, HT29, 72 hr, MTT): ≥ 1000 nM
≥ 50	–	≥ 50	–	–	≥ 50	≥ 50	≥ 50	–	–	–	≥ 50	≥ 50	–	CC(=O)c1cc2cc(NCc3cc(NC(=O)c4ccc(CN5CCN(C)CC5)c(C(F)(F)F)c4)ccc3C)cnc2[nH]1 [OR0720, N-{3-[(2-Acetyl-1H-pyrrolo[2,3-b]pyridin-5-ylamino)-methyl]-4-methyl-phenyl}-4-(4-methyl-piperazin-1-ylmethyl)-3-trifluoromethyl-benzamide]	EC50 ([2]; A549, 72 h): ≤ 100 nM; EC50 [19]: ≤ 100 nM; EC50 [20]: 100 to 1000 nM; tumor growth in xenografted mice bearing human hepatocellular carcinoma tumors [21]: significantly induced a decrease of tumor growth; Anti-tumor activity (Tumor Growth Inhibition—TGI) ([21]; mice, HepG2 xenograft, end of study vs vehicle): 66%*; EC50 ([9]; BXPC-3, 72 h): ≤ 100 nM; EC50 [22]: 100 to 1000 nM; EC50 ([15]; 72 h): ≤ 100 nM; EC50 ([16]; NCI-H1975, 72 h): 100 to 1000 nM; EC50 ([17]; HepG2, 72 h): ≤ 100 nM; EC50 [23]: 100 to 1000 nM; EC50 [24]: 100 to 1000 nM; EC50 [25]: 100 to 1000 nM; EC50 [26]: ≤ 100 nM; EC50 ([18]; HT-29, 72 h): ≤ 100 nM; EC50 [27]: ≤ 100 nM
